Earlier results on three substances are cited in patent US20070087333A1, “Method to detect antigen-specific cytolytic activity” (Erasmus Universiteit Rotterdam, priority 2004, published 2007).

One data set deals with TCC-C10 CTL clone. As to conditions: NP418-426 epitope variants, 51Cr-release assay, reference [2]; read-out: EC50 value of the peptide variant (functional avidity).
For a further data set, the system named is TCC3180 CTL clone. Conditions: NP418-426 epitope variants, 51Cr-release assay, reference [2]; for EC50: read-out: EC50 value of the peptide variant (functional avidity).

Turning to “NP01: HLA-B*3501 epitope NP418-426 peptide variant of influenza NP strain A/NL/18/94 (LPFEKSTVM; Derived from influenza virus genes encoding NP strain A/NL/18/94 (NP01))”, the EC50 in the data set on TCC-C10 CTL clone is around 0.8 nM; in the data set on TCC3180 CTL clone it was 0.5 nM.
With “NP02: HLA-B*3501 epitope NP418-426 peptide variant of influenza NP strain A/HK/2/68 (LPFDKPTIM; Derived from influenza virus genes encoding NP strain A/HK/2/68 (NP02))”, the EC50 in the data set on TCC-C10 CTL clone was above 5000 nM; with TCC3180 CTL clone, 26 nM.
Regarding “NP03: HLA-B*3501 epitope NP418-426 peptide variant of influenza NP strain A/PR/8/34 (LPFDRTTIM; Derived from influenza virus genes encoding NP strain A/PR/8/34 (NP03))”, the EC50 in the data set on TCC-C10 CTL clone was above 10000 nM. In addition, in the data set with TCC3180 CTL clone, the “EC50 value of the peptide variant (functional avidity)” value is “l lOO”.
